Where no end group is shown, it is not given here.
Legend:
[1] = tested on: interleukin-1 alpha (IL-1 alpha); assay: Ex vivo IL-1 alpha secretion by human skin biopsies (ELISA); assay type: cell-based; conditions: peptide 0.5 ppm 24 h, vs controls untreated by the peptide
Description: The goal of this study is to determine the ex vivo effect of peptide SEQ ID No. 5 on the production of the IL-1 alpha cellular inflammation mediator by biopsies of human skin cultivated under standard conditions or subjected to stress by UVB radiation or SDS.
5 mm-diameter biopsies of human skin are maintained in culture at the air-liquid interface in the presence of standard culture medium. The samples are treated with a 1% dilution of a solution at 50 ppm of peptide SEQ ID No. 5 for 24 hours, and then irradiated by UVB radiation (200 mJ/cm^2) and put back in culture for 24 hours, or subjected to contact with SDS at 2.5% for 24 hours in the presence of the same concentration of peptide SEQ ID No. 5. Controls untreated by the peptide are carried out under the same conditions. At the end of the experiment, the quantity of interleukin-1 alpha salted out in the culture medium is assayed by the ELISA technique.

HMG-CoA reductase = assay: Expression of HMG-CoA reductase in normal human keratinocytes (immunofluorescence); assay type: cell-based; conditions: peptide 0.5 ppm (1% of 50 ppm stock), 24 or 48 hours, anti-HMG-CoA reductase antibody, epifluorescence microscopy
Description: The goal of this study is to determine the influence of peptide SEQ ID No. 5 on the expression of HMG-CoA reductase in normal human keratinocytes.
Normal human keratinocytes in culture are treated with a 1% stock solution at 50 ppm of peptide SEQ ID No. 5 for 24 or 48 hours (the medium in the presence of the active ingredient is changed every 24 hours). The cells are then washed and fixed in cold methanol for 4 minutes at 4° C. The cells are incubated in the presence of a polyclonal rabbit antibody specific for HMG-CoA reductase (Millipore, Upstate), and then a secondary antibody coupled with a fluorescent dye. The cells are then examined by epifluorescence microscope (Nikon Eclipse E600 microscope).

HMG-CoA reductase expression (cytoplasmic fluorescence) (HMG-CoA reductase): more intense cytoplasmic fluorescence
Substance: Arg-Gly-Lys-Ser-NH2 (RGKS-NH2) [SEQ ID No. 5]
reduction of IL-1 alpha released in culture medium after SDS stress ([1]; SDS 2.5% for 24 hours with peptide): 58%
reduction of IL-1 alpha released in culture medium after UVB radiation ([1]; UVB 200 mJ/cm^2, 24 h culture): 40%

— US8546339B2, “Soothing cosmetic or pharmaceutical composition comprising a peptide which activates HMG-CoA reductase” (ISP Investments Inc., priority 2008, dated 2013)
